Experimental data reported in ChEMBL document CHEMBL4715829, “Heterodimeric Rifampicin-Tobramycin conjugates break intrinsic resistance of Pseudomonas aeruginosa to doxycycline and chloramphenicol in vitro and in a Galleria mellonella in vivo model” (Eur J Med Chem, 2019).
Values after ≈ are worked out from the molar mass of the structure shown.

How the values were obtained:
Pseudomonas aeruginosa [1] = assay: Antibacterial activity against Pseudomonas aeruginosa 200 harboring efflux mutant assessed as reduction in bacterial growth incubated for 18 hrs by broth microdilution assay; format: functional
Pseudomonas aeruginosa [2] = assay: Antibacterial activity against Pseudomonas aeruginosa 264-101354 assessed as reduction in bacterial growth incubated for 18 hrs by broth microdilution assay; format: functional
[3] = system: Staphylococcus epidermidis; assay: Antibacterial activity against methicillin-susceptible Staphylococcus epidermidis CANWARD 81388 assessed as reduction in bacterial growth incubated for 18 hrs by broth microdilution assay; format: functional
Pseudomonas aeruginosa [4] = assay: Antibacterial activity against Pseudomonas aeruginosa PAO1 assessed as reduction in bacterial growth by measuring cefotaxime MIC at <=[…] uM in presence of cefotaxime incubated for 18 hrs by broth microdilution assay based checkerboard assay (reference value: […] microg/ml); format: functional; details: dose microM <=10
Pseudomonas aeruginosa [5] = assay: Antibacterial activity against wild type Pseudomonas aeruginosa PAO1 assessed as reduction in bacterial growth incubated for 18 hrs by broth microdilution assay; format: functional
Pseudomonas aeruginosa [6] = assay: Antibacterial activity against Pseudomonas aeruginosa 262-101856 assessed as fractional inhibitory concentration index in presence of doxycycline incubated for 18 hrs by broth microdilution assay; format: functional
Pseudomonas aeruginosa [7] = assay: Antibacterial activity against Pseudomonas aeruginosa PAO1 assessed as fractional inhibitory concentration index in presence of Aztreonam incubated for 18 hrs by broth microdilution assay based checkerboard assay; format: functional
Acinetobacter baumannii [8] = assay: Antibacterial activity against Acinetobacter baumannii ATCC 17978 assessed as potentiation of doxycycline-induced antibacterial activity by measuring doxycycline MIC at 10 uM incubated for 18 hrs in presence of doxycycline by broth microdilution assay (reference value: 0.25 ug/ml); format: functional
Pseudomonas aeruginosa [9] = assay: Antibacterial activity against Pseudomonas aeruginosa 259-96918 assessed as reduction in bacterial growth incubated for 18 hrs by broth microdilution assay; format: functional
Pseudomonas aeruginosa [10] = assay: Potentiation of chloramphenicol-induced antibacterial activity against Pseudomonas aeruginosa 264-101354 incubated for 18 hrs in presence of chloramphenicol by broth microdilution assay; format: functional, organism-based; details: dose 1-32 µg/ml
Pseudomonas aeruginosa [11] = assay: Antibacterial activity against Pseudomonas aeruginosa PAO1 assessed as reduction in bacterial growth by measuring vancomycin MIC at <=10 uM in presence of vancomycin incubated for 18 hrs by broth microdilution assay based checkerboard assay (reference value: 256 microg/ml); format: functional; details: dose microM <=10
Klebsiella pneumoniae [12] = assay: Antibacterial activity against Klebsiella pneumoniae ATCC 16381 assessed as fractional inhibitory concentration index in presence of doxycycline incubated for 18 hrs by broth microdilution assay; format: functional
Escherichia coli [13] = assay: Antibacterial activity against Escherichia coli ATCC 25922 assessed as potentiation of chloramphenicol-induced antibacterial activity by measuring chloramphenicol MIC at 10 uM incubated for 18 hrs in presence of chloramphenicol by broth microdilution assay (reference value: 2 ug/ml); format: functional
Klebsiella pneumoniae [14] = assay: Antibacterial activity against Klebsiella pneumoniae ATCC 16381 assessed as potentiation of chloramphenicol-induced antibacterial activity by measuring chloramphenicol MIC at 10 uM incubated for 18 hrs in presence of chloramphenicol by broth microdilution assay (reference value: 1024 ug/ml); format: functional
Pseudomonas aeruginosa [15] = assay: Antibacterial activity against Pseudomonas aeruginosa PAO1 assessed as fractional inhibitory concentration index in presence of Cefotaxime incubated for 18 hrs by broth microdilution assay based checkerboard assay; format: functional
Pseudomonas aeruginosa [16] = assay: Antibacterial activity against Pseudomonas aeruginosa 91433 assessed as fractional inhibitory concentration index in presence of doxycycline incubated for 18 hrs by broth microdilution assay; format: functional
Pseudomonas aeruginosa [17] = assay: Potentiation of chloramphenicol-induced antibacterial activity against Pseudomonas aeruginosa PAO1 incubated for 18 hrs in presence of chloramphenicol by broth microdilution assay; format: functional, organism-based; details: dose 1-32 µg/ml
Enterobacter cloacae [18] = assay: Antibacterial activity against Enterobacter cloacae ATCC 117029 assessed as fractional inhibitory concentration index in presence of doxycycline incubated for 18 hrs by broth microdilution assay; format: functional
Escherichia coli [19] = assay: Antibacterial activity against Escherichia coli ATCC 25922 assessed as fractional inhibitory concentration index in presence of chloramphenicol incubated for 18 hrs by broth microdilution assay; format: functional
Acinetobacter baumannii [20] = assay: Antibacterial activity against Acinetobacter baumannii ATCC 17978 assessed as fractional inhibitory concentration index in presence of doxycycline incubated for 18 hrs by broth microdilution assay; format: functional
Pseudomonas aeruginosa [21] = assay: Antibacterial activity against Pseudomonas aeruginosa 91433 assessed as reduction in bacterial growth incubated for 18 hrs by broth microdilution assay; format: functional
Pseudomonas aeruginosa [22] = assay: Antibacterial activity against Pseudomonas aeruginosa 101885 assessed as fractional inhibitory concentration index in presence of doxycycline incubated for 18 hrs by broth microdilution assay; format: functional
Pseudomonas aeruginosa [23] = assay: Antibacterial activity against Pseudomonas aeruginosa 101885 assessed as fractional inhibitory concentration index in presence of chloramphenicol incubated for 18 hrs by broth microdilution assay; format: functional
Streptococcus pneumoniae = assay: Antibacterial activity against Streptococcus pneumoniae ATCC 49619 assessed as reduction in bacterial growth incubated for 18 hrs by broth microdilution assay; format: functional
Pseudomonas aeruginosa [24] = assay: Antibacterial activity against Pseudomonas aeruginosa 264-101354 assessed as fractional inhibitory concentration index in presence of chloramphenicol incubated for 18 hrs by broth microdilution assay; format: functional
Pseudomonas aeruginosa [25] = assay: Potentiation of doxycycline-induced antibacterial activity against Pseudomonas aeruginosa 264-101354 incubated for 18 hrs in presence of doxycycline by broth microdilution assay; format: functional, organism-based; details: dose 1-32 µg/ml
Enterobacter cloacae [26] = assay: Antibacterial activity against Enterobacter cloacae ATCC 117029 assessed as fractional inhibitory concentration index in presence of chloramphenicol incubated for 18 hrs by broth microdilution assay; format: functional
Pseudomonas aeruginosa [27] = assay: Antibacterial activity against Pseudomonas aeruginosa 264-101354 assessed as fractional inhibitory concentration index in presence of doxycycline incubated for 18 hrs by broth microdilution assay; format: functional
Pseudomonas aeruginosa [28] = assay: Antibacterial activity against gentamicin-resistant Pseudomonas aeruginosa CAN-ICU 62308 assessed as reduction in bacterial growth incubated for 18 hrs by broth microdilution assay; format: functional
Pseudomonas aeruginosa [29] = assay: Potentiation of doxycycline-induced antibacterial activity against Pseudomonas aeruginosa PAO1 incubated for 18 hrs in presence of doxycycline by broth microdilution assay; format: functional, organism-based; details: dose 1-32 µg/ml
Acinetobacter baumannii [30] = assay: Antibacterial activity against Acinetobacter baumannii ATCC 17978 assessed as potentiation of chloramphenicol-induced antibacterial activity by measuring chloramphenicol MIC at 10 uM incubated for 18 hrs in presence of chloramphenicol by broth microdilution assay (reference value: 64 ug/ml); format: functional
Pseudomonas aeruginosa [31] = assay: Antibacterial activity against Pseudomonas aeruginosa PAO1 assessed as fractional inhibitory concentration index in presence of Nitrofurantoin incubated for 18 hrs by broth microdilution assay based checkerboard assay; format: functional
Pseudomonas aeruginosa [32] = assay: Antibacterial activity against Pseudomonas aeruginosa PAO1 assessed as reduction in bacterial growth by measuring erythromycin MIC at <=10 uM in presence of erythromycin incubated for 18 hrs by broth microdilution assay based checkerboard assay (reference value: 256 microg/ml); format: functional; details: dose microM <=10
Klebsiella pneumoniae [33] = assay: Antibacterial activity against Klebsiella pneumoniae ATCC 16381 assessed as reduction in bacterial growth incubated for 18 hrs by broth microdilution assay; format: functional
Pseudomonas aeruginosa [34] = assay: Antibacterial activity against Pseudomonas aeruginosa 100036 assessed as fractional inhibitory concentration incubated for 18 hrs in presence of doxycycline by broth microdilution assay; format: functional
Pseudomonas aeruginosa [35] = assay: Antibacterial activity against Pseudomonas aeruginosa 262-101856 assessed as fractional inhibitory concentration incubated for 18 hrs in presence of doxycycline by broth microdilution assay; format: functional

Compound: CO[C@H]1/C=C/O[C@@]2(C)Oc3c(C)c(O)c4c(O)c(c(/C=N/N5CCN(Cc6cn(CCCCCCO[C@@H]7[C@@H](O[C@H]8O[C@H](CO)[C@@H](O)[C@H](N)[C@H]8O)[C@H](N)C[C@H](N)[C@H]7O[C@H]7O[C@H](CN)[C@@H](O)C[C@H]7N)nn6)CC5)c(O)c4c3C2=O)NC(=O)/C(C)=C\C=C\[C@H](C)[C@H](O)[C@@H](C)[C@@H](O)[C@@H](C)[C@H](OC(C)=O)[C@@H]1C.Cl.Cl.Cl.Cl.Cl
- MIC (Pseudomonas aeruginosa [1]): 128 mg/L
- MIC (Pseudomonas aeruginosa [2]): 256 mg/L
- MIC [3]: 4 mg/L
- MIC (Pseudomonas aeruginosa [4]): 16 mg/L
- MIC (Pseudomonas aeruginosa [5]): 512 mg/L
- fractional inhibitory concentration index (FICI) (Pseudomonas aeruginosa [6]): <0.07
- fractional inhibitory concentration index (FICI) (Pseudomonas aeruginosa [7]): 1.03
- MIC (Acinetobacter baumannii [8]): 0.25 mg/L
- MIC (Pseudomonas aeruginosa [9]): > 128 mg/L
- Activity (Pseudomonas aeruginosa [10]): Dose-dependent effect
- MIC (Pseudomonas aeruginosa [11]): 256 mg/L
- fractional inhibitory concentration index (FICI) (Klebsiella pneumoniae [12]): <0.516
- MIC (Escherichia coli [13]): 1 mg/L
- MIC (Klebsiella pneumoniae [14]): 256 mg/L
- fractional inhibitory concentration index (FICI) (Pseudomonas aeruginosa [15]): 1.03
- fractional inhibitory concentration index (FICI) (Pseudomonas aeruginosa [16]): 0.25
- Activity (Pseudomonas aeruginosa [17]): Dose-dependent effect
- fractional inhibitory concentration index (FICI) (Enterobacter cloacae [18]): 0.5
- fractional inhibitory concentration index (FICI) (Escherichia coli [19]): 0.75
- fractional inhibitory concentration index (FICI) (Acinetobacter baumannii [20]): 1.25
- MIC (Pseudomonas aeruginosa [21]): > 128 mg/L
- fractional inhibitory concentration index (FICI) (Pseudomonas aeruginosa [22]): 0.078
- fractional inhibitory concentration index (FICI) (Pseudomonas aeruginosa [23]): 0.078
- MIC (Streptococcus pneumoniae): 2 mg/L
- fractional inhibitory concentration index (FICI) (Pseudomonas aeruginosa [24]): 0.063
- Activity (Pseudomonas aeruginosa [25]): Dose-dependent effect
- fractional inhibitory concentration index (FICI) (Enterobacter cloacae [26]): 0.375
- fractional inhibitory concentration index (FICI) (Pseudomonas aeruginosa [27]): 0.064
- MIC (Pseudomonas aeruginosa [28]): > 32 mg/L
- Activity (Pseudomonas aeruginosa [29]): Dose-dependent effect
- MIC (Acinetobacter baumannii [30]): 32 mg/L
- fractional inhibitory concentration index (FICI) (Pseudomonas aeruginosa [31]): 0.53
- MIC (Pseudomonas aeruginosa [32]): 32 mg/L
- MIC (Klebsiella pneumoniae [33]): > 128 mg/L

Compound: NC[C@H]1O[C@H](O[C@H]2[C@H](O)[C@@H](O[C@H]3O[C@H](CO)[C@@H](O)[C@H](N)[C@H]3O)[C@H](N)C[C@@H]2N)[C@H](N)C[C@@H]1O [TOBRAMYCIN]
- MIC (Pseudomonas aeruginosa [1]): 0.5 mg/L (≈ 1.07 µM)
- MIC (Pseudomonas aeruginosa [2]): 128 mg/L (≈ 274 µM)
- FIC (Pseudomonas aeruginosa [34]): 0.5
- MIC [3]: ≤ 0.25 mg/L
- MIC (Pseudomonas aeruginosa [5]): 1 mg/L (≈ 2.14 µM)
- fractional inhibitory concentration index (FICI) (Pseudomonas aeruginosa [6]): <=1.5
- MIC (Pseudomonas aeruginosa [9]): 256 mg/L (≈ 548 µM)
- fractional inhibitory concentration index (FICI) (Pseudomonas aeruginosa [16]): 1.5
- MIC (Pseudomonas aeruginosa [21]): 16 mg/L (≈ 34.2 µM)
- MIC (Streptococcus pneumoniae): 2 mg/L (≈ 4.28 µM)
- fractional inhibitory concentration index (FICI) (Pseudomonas aeruginosa [24]): 1
- fractional inhibitory concentration index (FICI) (Pseudomonas aeruginosa [27]): 1.5
- MIC (Pseudomonas aeruginosa [28]): 16 mg/L (≈ 34.2 µM)
- FIC (Pseudomonas aeruginosa [35]): <=0.5
